Results published in patent US11307205B2, “Non-radioactive cytotoxicity assays” (University of Southern California, priority 2016, dated 2022).

Columns and labels:
Assay type in all cases: cell-based
[1] = tested on: HEL-92-1-17 cells; experiment: Matador assay, Digitonin-induced death of HEL cells expressing a luciferase reporter; settings: Digitonin 30 μg/ml, 1 hour
Protocol: A 100× stock solution of native coelenterazine (CTZ; Nanolight, cat #303) was made by dissolving 1 mg of lyophilized CTZ powder in 1.1 ml of 100% Methanol supplemented with 30 μl of 6N HCl to avoid oxidation of CTZ with time. To make CTZ assay buffer, the 100× stock solution of CTZ was diluted to 0.5× concentration in PBS. Unless indicated otherwise, a total volume of 15 μl of the CTZ assay buffer (as prepared above) was added using an auto-injector to each well of a 384-well white plate (Greiner, 384 well white plate cat #781075) containing cells expressing the non-secretory form of a copepod luciferase in approximately 50-60 μl volume of medium and plates were read for luminescence in well-mode using BioTek synergyH4 plate reader. In the well-mode, an auto-injector or dispenser is used and assay buffer is added in one well, luminescence is read in that well, then the assay buffer is added to next well and luminescence is read in that well. Where indicated, assay was also conducted in the endpoint mode. In the endpoint mode, an autoinjector or dispenser is not used, the assay buffer is added in all wells manually using a pipette and then luminescence is read in all wells of the plate. For 96 well plates, cells were plated in 200 μl of media and approximately 50 μl of 0.5×CTZ assay buffer was added. […]

[2] = tested on: K562 cells; experiment: Matador assay, death of K562 reporter cells induced by Digitonin or lytic reagent
[3] = tested on: Nalm6 cells; experiment: Dual reporter Matador assay, Digitonin-induced death of Nalm6 cells; settings: Nalm6 cells expressing both GLuc and FfLuc; Digitonin 30 μg/ml, 90 minutes
Protocol: Briefly, 20000 cells in 20 μl media were plated in each well of a 384 well plate followed by addition of 20 μl of Digitonin (final concentration 30 μg/ml) or media alone (20 μl) and incubated for 90 minutes.

[4] = tested on: primary leukemia blast cells (Chrt3); experiment: Matador assay on primary leukemia blast cells expressing GLuc; settings: two additional primary leukemia samples; Digitonin; present tense
Protocol: To examine if this assay can be also used to measure death of primary cells, leukemic blasts were isolated from a de-identified leukemia patient using Ficoll-Hypaque gradient centrifugation and then transduced with pLenti-EF1a-Pac-T2A-Gluc-B07 (SEQ ID NO: 94) lentiviral vector to generate primary leukemia blast cells (Chrt3) expressing the non-secretory form of GLuc cDNA. Briefly, 1 million primary leukemic blasts were cultured in XVIVO medium in a 6-well plate in the presence of GLuc lentiviral supernatant and polybrene (5 μg/ml) and centrifuged at 2,800 rpm at 32° C. for 2 hours followed by incubation of cells at 37° C. for 24 hours in XVIVO medium. To measure the killing of Chrt3-GLuc cells, the transduced cells were plated at a density of 20,000 cells per well in 30 μl of medium in triplicate in a white 384 well plate and co-cultured with the effector cells for 4 hours at an E:T ratio of 0.125:1. Cell death was assayed by the single-step homogenous GLuc assay by injecting 0.5×CTZ assay buffer in well mode. […] Two additional primary leukemia samples are infected with GLuc encoding lentiviral vector and cell death is induced by treatment with Digitonin.

C[C@@H]1CC[C@@]2(OC1)O[C@H]1[C@@H](O)[C@H]3[C@@H]4CC[C@H]5C[C@@H](O[C@@H]6O[C@H](CO)[C@H](O[C@@H]7O[C@H](CO)[C@@H](O)[C@H](O[C@@H]8OC[C@@H](O)[C@H](O)[C@H]8O)[C@H]7O[C@@H]7O[C@H](CO)[C@H](O)[C@H](O[C@@H]8O[C@H](CO)[C@@H](O)[C@H](O)[C@H]8O)[C@H]7O)[C@H](O)[C@H]6O)[C@H](O)C[C@]5(C)[C@H]4CC[C@]3(C)[C@H]1[C@@H]2C [Digitonin]
GLuc luciferase activity ([1]; HEL-92-1-17 cells stably expressing GLuc, evident even in wells containing a single cell): increase in GLuc luciferase activity
NLuc activity ([1]; HEL-92-1-17 cells stably expressing NLuc): increase in NLuc activity
MLuc7 activity ([2]; K562-MLuc7 (additional example), Digitonin 30 μg/ml, 1 cell/well to 10K cells/well): increase in MLuc7 activity
MLuc7 activity ([2]; K562-MLuc7, Digitonin 1 hour, 1 cell/well to 400K cells/well): increase in MLuc7 activity
NLuc luminescence in the supernatant ([2]; K562-NLuc, Digitonin 1 h, all three assay buffers): increase in luminescence
TLuc activity ([2]; K562 cells expressing TurboLuc16, Digitonin 90 min): increase in TLuc activity
FfLuc and GLuc activities ([2]; K562 cells expressing both GLuc and FfLuc, Digitonin 30 μg/ml, 90 minutes): increase in both FfLuc and GLuc activities
LucPPe-146-1H2 activity ([2]; K562 cells stably expressing LucPPe-146-1H2, Digitonin 30 μg/ml): increase in LucPPe-146-1H2 activity
NLuc activity ([2]; K562 cells stably expressing NLuc, Digitonin 30 μg/ml, 1 hour): increase in NLuc activity
Renilla Luc activity ([2]; K562 cells stably expressing Renilla Luc, Digitonin 2 hours): increase in Renilla Luc activity
Luc49-7C6A, Luc78-0B10, Luc133-IB2 and LucPpL-81-6G1 activities ([2]; K562 cells stably expressing these luciferases, Digitonin 30 μg/ml, example in present tense): increase in Luc49-7C6A, Luc78-0B10, Luc133-IB2 and LucPpL-81-6G1 activities
LucPPe-146-1H2 and NLuc luminescence ([2]; K562 co-expressing both luciferases, Digitonin 30 μg/ml, 90 minutes, Dual-Luciferase Reporter Assay System): increase in both LucPPe-146-1H2 and NLuc luminescence
LucPPe-146-1H2 and NLuc activities ([2]; K562 co-expressing both luciferases, Digitonin, measured in different wells with D-luciferin and CTZ assay buffers): increase in both LucPPe-146-1H2 and NLuc activities
FfLuc and GLuc activities [3]: increase in both FfLuc and GLuc activities
GLuc activity [4]: increase in GLuc activity
